Data published in ChEMBL document CHEMBL5223092, “Antibacterial activities of plant-derived xanthones” (RSC Med Chem, 2022).
In brackets after ≈: the same amount, converted by molar mass.

Legend:
[1] = system: Bacillus subtilis; test: Antibacterial activity against Bacillus subtilis incubated for 8 to 12 hrs by Alamar blue reagent based microdilution broth method; assay type: functional; details: time 8-12 hrs
[2] = system: Staphylococcus aureus; test: Antibacterial activity against Staphylococcus aureus TISTR 517 incubated for 8 to 12 hrs by Alamar blue reagent based microdilution broth method; assay type: functional; details: time 8-12 hrs
[3] = system: Pseudomonas aeruginosa; test: Antibacterial activity against Pseudomonas aeruginosa incubated for 8 to 12 hrs by Alamar blue reagent based microdilution broth method; assay type: functional; details: time 8-12 hrs
[4] = system: Enterococcus faecalis; test: Antibacterial activity against Streptococcus faecalis incubated for 8 to 12 hrs by Alamar blue reagent based microdilution broth method; assay type: functional; details: time 8-12 hrs
[5] = system: Salmonella typhi; test: Antibacterial activity against Salmonella typhi incubated for 8 to 12 hrs by Alamar blue reagent based microdilution broth method; assay type: functional, Salmonella enterica subsp. enterica serovar Typhi; details: Salmonella enterica; time 8-12 hrs
[6] = system: Micrococcus luteus; test: Antibacterial activity against Micrococcus luteus; assay type: functional
[7] = system: Listeria monocytogenes; test: Antibacterial activity against Listeria monocytogenes DMST 17303 by Mueller-Hinton broth based two-fold serial dilution method; assay type: functional
[8] = system: Staphylococcus aureus; test: Antibacterial activity against Staphylococcus aureus TISTR 517 by Mueller-Hinton broth based two-fold serial dilution method; assay type: functional
[9] = system: Staphylococcus epidermidis; test: Antibacterial activity against Staphylococcus epidermidis DMST 15505 by Mueller-Hinton broth based two-fold serial dilution method; assay type: functional
[10] = system: Streptococcus pyogenes; test: Antibacterial activity against Streptococcus pyogenes DMST 17020 by Mueller-Hinton broth based two-fold serial dilution method; assay type: functional
[11] = system: Escherichia coli; test: Antibacterial activity against Escherichia coli ATCC 25922 by Mueller-Hinton broth based two-fold serial dilution method; assay type: functional
[12] = system: Staphylococcus aureus; test: Antibacterial activity against methicillin resistant Staphylococcus aureus SK1 incubated for 16 to 18 hrs by agar microdilution method; assay type: functional; details: time 16-18 hrs
[13] = system: Bacillus cereus; test: Antibacterial activity against Bacillus cereus; assay type: functional
[14] = system: Bacillus subtilis; test: Antibacterial activity against Bacillus subtilis; assay type: functional
[15] = system: Salmonella typhimurium; test: Antibacterial activity against Salmonella typhimurium TISTR 292 incubated for 16 to 18 hrs by Mueller-Hinton broth based two-fold serial dilution method; assay type: functional, Salmonella enterica subsp. enterica serovar Typhimurium; details: Salmonella enterica, time 16-18 hrs
[16] = Lipophilicity, logP of the compound; assay type: physicochemical; details: octanol/water
[17] = system: Staphylococcus aureus; test: Antibacterial activity against Staphylococcus aureus TISTR 1466 by Mueller-Hinton broth based two-fold serial dilution method; assay type: functional
[18] = system: Staphylococcus aureus; test: Antibacterial activity against methicillin resistant Staphylococcus aureus SK1 by Mueller-Hinton broth based two-fold serial dilution method; assay type: functional
[19] = system: Bacillus subtilis; test: Antibacterial activity against Bacillus subtilis TISTR 008 by Mueller-Hinton broth based two-fold serial dilution method; assay type: functional
[20] = system: Micrococcus luteus; test: Antibacterial activity against Micrococcus luteus TISTR 884 by Mueller-Hinton broth based two-fold serial dilution method; assay type: functional
[21] = system: Staphylococcus epidermidis; test: Antibacterial activity against Staphylococcus epidermis ATCC 12228 by Mueller-Hinton broth based two-fold serial dilution method; assay type: functional
[22] = system: Bacillus cereus; test: Antibacterial activity against Bacillus cereus TISTR 688 by Mueller-Hinton broth based two-fold serial dilution method; assay type: functional
[23] = system: Salmonella typhimurium; test: Antibacterial activity against Salmonella typhimurium TISTR 292 by Mueller-Hinton broth based two-fold serial dilution method; assay type: functional, Salmonella enterica subsp. enterica serovar Typhimurium; details: Salmonella enterica
[24] = system: Staphylococcus aureus; test: Antibacterial activity against methicillin resistant Staphylococcus aureus by liquid dilution method; assay type: functional
[25] = system: Staphylococcus aureus; test: Antibacterial activity against Staphylococcus aureus NIHJ 209p; assay type: functional
[26] = system: Escherichia coli; test: Antibacterial activity against Escherichia coli NIHJ K 12; assay type: functional
[27] = system: Micrococcus luteus; test: Antibacterial activity against Micrococcus luteus TISTR 1466 incubated for 16 to 18 hrs by Mueller-Hinton broth based two-fold serial dilution method; assay type: functional; details: time 16-18 hrs
[28] = system: Bacillus cereus; test: Antibacterial activity against Bacillus cereus TISTR 688 incubated for 16 to 18 hrs by Mueller-Hinton broth based two-fold serial dilution method; assay type: functional; details: time 16-18 hrs
[29] = system: Escherichia coli; test: Antibacterial activity against Escherichia coli TISTR 780 incubated for 16 to 18 hrs by Mueller-Hinton broth based two-fold serial dilution method; assay type: functional; details: time 16-18 hrs
[30] = system: Pseudomonas aeruginosa; test: Antibacterial activity against Pseudomonas aeruginosa TISTR 781 incubated for 16 to 18 hrs by Mueller-Hinton broth based two-fold serial dilution method; assay type: functional; details: time 16-18 hrs
[31] = system: Staphylococcus epidermidis; test: Antibacterial activity against Staphylococcus epidermidis ATCC 12228 incubated for 16 to 18 hrs by Mueller-Hinton broth based two-fold serial dilution method
[32] = system: Vibrio harveyi; test: Antibacterial activity against Vibrio harveyi SZ-1 incubated for 24 hrs by oxford cup method; assay type: functional
[33] = system: Vibrio harveyi; test: Antibacterial activity against Vibrio harveyi 1.8690 incubated for 24 hrs by oxford cup method; assay type: functional
[34] = system: Bacillus subtilis; test: Antibacterial activity against Bacillus subtilis PCI 219 incubated for 20 hrs by Mueller-Hinton broth based agar based dilution method; assay type: functional
[35] = system: Staphylococcus aureus; test: Antibacterial activity against methicillin resistant Staphylococcus aureus incubated for 20 hrs by Mueller-Hinton broth based agar based dilution method; assay type: functional
[36] = system: Micrococcus luteus; test: Antibacterial activity against Micrococcus luteus ATCC 9341 incubated for 20 hrs by Mueller-Hinton broth based agar based dilution method; assay type: functional
[37] = system: Staphylococcus aureus; test: Antibacterial activity against methicillin resistant Staphylococcus aureus; assay type: functional
[38] = system: Staphylococcus aureus; test: Antibacterial activity against Staphylococcus aureus; assay type: functional
[39] = system: Staphylococcus epidermidis; test: Antibacterial activity against Staphylococcus epidermidis; assay type: functional
[40] = system: Escherichia coli; test: Antibacterial activity against Escherichia coli; assay type: functional
[41] = system: Pseudomonas aeruginosa; test: Antibacterial activity against Pseudomonas aeruginosa; assay type: functional
[42] = system: Vibrio vulnificus; test: Antibacterial activity against Vibrio vulnificus MCCC E1758; assay type: functional
[43] = system: Vibrio rotiferianus; test: Antibacterial activity against Vibrio rotiferianus MCCC E385; assay type: functional
[44] = system: Vibrio campbellii; test: Antibacterial activity against Vibrio campbellii MCCC E333; assay type: functional
[45] = system: Enterococcus faecalis; test: Antibacterial activity against Enterococcus faecalis JCM 7783 incubated for 20 hrs by Mueller-Hinton broth based agar based dilution method; assay type: functional
[46] = system: Enterococcus faecalis; test: Antibacterial activity against Enterococcus faecalis JU 1856 incubated for 20 hrs by Mueller-Hinton broth based agar based dilution method; assay type: functional
[47] = system: Enterococcus faecalis; test: Antibacterial activity against Enterococcus faecalis JU 1782 incubated for 20 hrs by Mueller-Hinton broth based agar based dilution method; assay type: functional
[48] = system: Staphylococcus aureus; test: Antibacterial activity against methicillin sensitive Staphylococcus aureus JCM 2874 incubated for 20 hrs by Mueller-Hinton broth based agar based dilution method; assay type: functional

Compound: CC(C)=CCc1c2c(c(O)c3c(=O)c4ccc(O)c(O)c4oc13)C=CC(C)(C)O2
- MIC [1]: 1.1 µg/mL (≈ 2.79 µM)
- MIC [2]: 1.1 µg/mL (≈ 2.79 µM)
- MIC [3]: 9.3 µg/mL (≈ 23.6 µM)
- MIC [4]: 1.1 µg/mL (≈ 2.79 µM)
- MIC [5]: 1.1 µg/mL (≈ 2.79 µM)

Compound: COc1c(O)cc2oc3cc4c(c(O)c3c(=O)c2c1CC=C(C)C)CC(C(C)(C)O)O4 (stereo not given)
- MIC [6]: 12.5 µg/mL (≈ 29.3 µM)
- MIC [7]: 0.78 µg/mL (≈ 1.83 µM)
- MIC [8]: 12.5 µg/mL (≈ 29.3 µM)
- MIC [9]: 25 µg/mL (≈ 58.6 µM)
- MIC [10]: 3.13 µg/mL (≈ 7.34 µM)
- MIC [11]: 25 µg/mL (≈ 58.6 µM)
- MIC [12]: 4 µg/mL (≈ 9.38 µM)
- MIC [13]: 8 µg/mL (≈ 18.8 µM)
- MIC [14]: 2 µg/mL (≈ 4.69 µM)

Compound: COc1cc2c(=O)c3c(O)cc(O)cc3oc2cc1O [ALLOATHYRIOL]
- MIC [15]: 4 µg/mL (≈ 14.6 µM)
- logP [16]: 1.74

Compound: COc1c(O)cc2oc3cc(O)c(CC=C(C)C)c(O)c3c(=O)c2c1C/C=C(\C)CCC=C(C)C [COWANIN]
- MIC [17]: 32 µg/mL (≈ 66.9 µM)
- MIC [18]: 2 µg/mL (≈ 4.18 µM)
- MIC [19]: 4 µg/mL (≈ 8.36 µM)
- MIC [20]: 4 µg/mL (≈ 8.36 µM)
- MIC [21]: 2 µg/mL (≈ 4.18 µM)
- MIC [22]: 32 µg/mL (≈ 66.9 µM)
- MIC [23]: 64 µg/mL (≈ 134 µM)

Compound: C=CC(C)(C)c1cc(O)c2oc3c(O)c(O)ccc3c(=O)c2c1O
- MIC [24]: 25 µg/mL (≈ 76.1 µM)
- MIC [25]: 12.5 µg/mL (≈ 38.1 µM)
- MIC [26]: 25 µg/mL (≈ 76.1 µM)

Compound: CC1(C)CC(O)Oc2cc(O)c3c(=O)c4cccc(O)c4oc3c21 (stereo not given)
- MIC [27]: 16 µg/mL (≈ 48.7 µM)
- MIC [28]: 32 µg/mL (≈ 97.5 µM)
- MIC [29]: 32 µg/mL (≈ 97.5 µM)
- MIC [15]: 32 µg/mL (≈ 97.5 µM)
- MIC [30]: 16 µg/mL (≈ 48.7 µM)
- MIC [31]: 16 µg/mL (≈ 48.7 µM)

Compound: COc1cc(O)cc2c1C(=O)c1c(O)cc(C)cc1C2=O [QUESTIN]
- MIC [32]: < 50 µg/mL
- MIC [33]: < 50 µg/mL

Compound: C=CC(C)(C)c1c(O)cc2oc3c(O)c4c(cc3c(=O)c2c1O)C=CC(C)(C)O4 [GERONTOXANTHONE B]
- MIC [34]: > 25 µg/mL
- MIC [35]: 25 µg/mL (≈ 63.4 µM)
- MIC [36]: 12.5 µg/mL (≈ 31.7 µM)

Compound: C=CC(C)(C)c1c(O)c(CC=C(C)C)c(O)c2c(=O)c3ccc(O)c(O)c3oc12 [GERONTOXANTHONE I]
- MIC [37]: 3.13 µg/mL (≈ 7.9 µM)
- MIC [6]: 6.25 µg/mL (≈ 15.8 µM)
- MIC [1]: 2.5 µg/mL (≈ 6.31 µM)
- MIC [2]: 1.1 µg/mL (≈ 2.77 µM)
- MIC [3]: > 50 µg/mL
- MIC [4]: 3.13 µg/mL (≈ 7.9 µM)
- MIC [5]: 1.1 µg/mL (≈ 2.77 µM)

Compound: CC(C)=CCC/C(C)=C/Cc1c2c(c3oc4c(O)cccc4c(=O)c3c1O)C=CC(C)(C)O2
- MIC [1]: 4.6 µg/mL (≈ 10.3 µM)
- MIC [2]: 2.3 µg/mL (≈ 5.15 µM)
- MIC [3]: > 50 µg/mL
- MIC [4]: 18.7 µg/mL (≈ 41.9 µM)
- MIC [5]: 4.6 µg/mL (≈ 10.3 µM)

Compound: COc1c(O)cc2oc3cc(O)c(CC=C(C)C)c(O)c3c(=O)c2c1CC=C(C)C [MANGOSTIN]
- MIC [37]: 6.25 µg/mL (≈ 15.2 µM)
- MIC [38]: 3.13 µg/mL (≈ 7.63 µM)
- MIC [6]: 1 µg/mL (≈ 2.44 µM)
- MIC [39]: 1.56 µg/mL (≈ 3.8 µM)
- MIC [40]: 12.5 µg/mL (≈ 30.5 µM)
- MIC [41]: 12.5 µg/mL (≈ 30.5 µM)

Compound: COc1cc2c(=O)c3c(O)cccc3oc2c(O)c1OC
- MIC [28]: 16 µg/mL (≈ 55.5 µM)
- logP [16]: 2.09
- MIC [31]: 16 µg/mL (≈ 55.5 µM)

Compound: CC(C)=CCc1c(O)cc2oc3c(c(=O)c2c1O)C[C@H](CC=C(C)C)C(=O)[C@@]3(O)CC=C(C)C
- MIC [17]: 2 µg/mL (≈ 4.29 µM)
- MIC [18]: 2 µg/mL (≈ 4.29 µM)

Compound: C=CC(C)(C)c1cc(O)c2oc3c(O)cccc3c(=O)c2c1O
- MIC [37]: 3.13 µg/mL (≈ 10 µM)
- MIC [38]: 6.25 µg/mL (≈ 20 µM)

Compound: CC(C)=CCc1c(O)cc2oc3c(CC=C(C)C)c(O)c(O)c(CC=C(C)C)c3c(=O)c2c1O [GARCINONE E]
- MIC [24]: 25 µg/mL (≈ 53.8 µM)
- MIC [25]: 12.5 µg/mL (≈ 26.9 µM)
- MIC [26]: 25 µg/mL (≈ 53.8 µM)
- MIC [42]: 15.6 µg/mL (≈ 33.6 µM)
- MIC [43]: 15.6 µg/mL (≈ 33.6 µM)
- MIC [44]: 31.2 µg/mL (≈ 67.2 µM)

Compound: COc1c(O)cc2oc3cc(O)cc(O)c3c(=O)c2c1C/C=C(\C)CCC=C(C)C [RUBRAXANTHONE]
- MIC [24]: 1.25 µg/mL (≈ 3.05 µM)
- MIC [38]: 12 µg/mL (≈ 29.2 µM)
- MIC [19]: 1 µg/mL (≈ 2.44 µM)
- MIC [20]: 2 µg/mL (≈ 4.87 µM)
- MIC [21]: 4 µg/mL (≈ 9.75 µM)

Compound: CC(C)=CCc1c(O)cc(O)c2c(=O)c3c(CC=C(C)C)c(O)ccc3oc12 [GERONTOXANTHONE H]
- MIC [45]: 1.56 µg/mL (≈ 4.1 µM)
- MIC [46]: 1.56 µg/mL (≈ 4.1 µM)
- MIC [47]: 1.56 µg/mL (≈ 4.1 µM)
- MIC [34]: 1.56 µg/mL (≈ 4.1 µM)
- MIC [48]: 1.56 µg/mL (≈ 4.1 µM)
- MIC [35]: 1.56 µg/mL (≈ 4.1 µM)
- MIC [36]: 1.56 µg/mL (≈ 4.1 µM)
